Laboratory results as given in patent publication US6610853B1, “N-(phenylsulfonyl)picolinamide derivatives, process for producing the same, and herbicide” (Kureha Kagaku Kogyo K.K., priority 2000, dated 2003).

Experiments:
Experiment in all cases: Test on herbicidal activity by foliar application
Type in all cases: in vivo
Details in all cases: foliar spray, 1 kg/ha, plants at 1-2 leaf stage in pots, evaluated 14 days after spraying
[1] = system: Abutilon theophrasti
Description: (§1) Test on Herbicidal Activity by Foliar Application: Herbicidal solutions of each test compounds, which were prepared by dissolving at predetermined concentrations such a wettable powder of the test compound as that described in the above Formulation Example, were sprayed at dosages of 1 kg/ha over foliar parts of Amaranthus retroflexus, Bidens pilosa, Sinapis arvensis, Stellaria media, Solanum nigrum, Abutilon theophrasti, Convolvulus arvensis, Matricaria chamomilla, Galium aparine, Veronica hederaefolia, and Setaria viridis (each test plant is 1-2 leaf stage) which were grown in pots. 14 days latter after spraying, its herbicidal activity was evaluated in accordance with the below-described system. Herbicidal Activity 1: less than 30% inhibition 2: 30% or more-50% inhibition 3: 50% or more-70% inhibition 4: 70% or more-90% inhibition 5: 90% or more inhibition

[2] = system: Amaranthus retroflexus
Description: as §1

[3] = system: Bidens pilosa
Description: as §1

[4] = system: Convolvulus arvensis
Description: as §1

[5] = system: Galium aparine
Description: as §1

[6] = system: Matricaria chamomilla
Description: as §1

[7] = system: Setaria viridis
Description: as §1

[8] = system: Sinapis arvensis
Description: as §1

[9] = system: Solanum nigrum
Description: as §1

[10] = system: Stellaria media
Description: as §1

[11] = system: Veronica hederaefolia
Description: as §1

Structure (SMILES)	Herbicidal activity, Abutilon theophrasti [1]	Herbicidal activity, Amaranthus retroflexus [2]	Herbicidal activity, Bidens pilosa [3]	Herbicidal activity, Convolvulus arvensis [4]	Herbicidal activity, Galium aparine [5]	Herbicidal activity, Matricaria chamomilla [6]	Herbicidal activity, Setaria viridis [7]	Herbicidal activity, Sinapis arvensis [8]	Herbicidal activity, Solanum nigrum [9]	Herbicidal activity, Stellaria media [10]	Herbicidal activity, Veronica hederaefolia [11]
COc1cc(Cl)nc(C(=O)NS(=O)(=O)c2ccccc2OC(F)(F)F)c1 [Compound I-795, N-[(2-Trifluoromethoxyphenyl)sulfonyl]-6-chloro-4-methoxy-2-pyridinecarboxamide]	4 (70% or more-90% inhibition)	4 (70% or more-90% inhibition)	5 (90% or more inhibition)	3 (50% or more-70% inhibition)	5 (90% or more inhibition)	5 (90% or more inhibition)	2 (30% or more-50% inhibition)	5 (90% or more inhibition)	5 (90% or more inhibition)	5 (90% or more inhibition)	5 (90% or more inhibition)
COc1ccc(C(=O)NS(=O)(=O)c2ccccc2OC(F)(F)F)nc1Cl [Compound I-798, N-[(2-Trifluoromethoxyphenyl)sulfonyl]-6-chloro-5-methoxy-2-pyridinecarboxamide]	5 (90% or more inhibition)	5 (90% or more inhibition)	5 (90% or more inhibition)	4 (70% or more-90% inhibition)	5 (90% or more inhibition)	5 (90% or more inhibition)	3 (50% or more-70% inhibition)	5 (90% or more inhibition)	5 (90% or more inhibition)	5 (90% or more inhibition)	5 (90% or more inhibition)
COc1ccc(C(=O)NS(=O)(=O)c2ccccc2OC(F)(F)F)nc1OC [Compound I-799, N-[(2-Trifluoromethoxyphenyl)sulfonyl]-5,6-dimethoxy-2-pyridinecarboxamide]	5 (90% or more inhibition)	3 (50% or more-70% inhibition)	4 (70% or more-90% inhibition)	3 (50% or more-70% inhibition)	4 (70% or more-90% inhibition)	5 (90% or more inhibition)	3 (50% or more-70% inhibition)	5 (90% or more inhibition)	4 (70% or more-90% inhibition)	5 (90% or more inhibition)	4 (70% or more-90% inhibition)
COc1ccc(C(=O)NS(=O)(=O)c2ccccc2OC(F)(F)F)nc1Br [Compound I-805, N-[[2-Trifluoromethoxyphenyl]sulfonyl]-6-bromo-5-methoxy-2-pyridinecarboxamide]	5 (90% or more inhibition)	5 (90% or more inhibition)	5 (90% or more inhibition)	5 (90% or more inhibition)	5 (90% or more inhibition)	5 (90% or more inhibition)	4 (70% or more-90% inhibition)	5 (90% or more inhibition)	5 (90% or more inhibition)	5 (90% or more inhibition)	4 (70% or more-90% inhibition)
COc1cc(Cl)nc(C(=O)NS(=O)(=O)c2ccccc2S(C)(=O)=O)c1 [Compound I-818, 6-Chloro-4-methoxy-N-[[2-(methylsulfonyl)-phenyl]sulfonyl]-2-pyridinecarboxamide]	4 (70% or more-90% inhibition)	5 (90% or more inhibition)	5 (90% or more inhibition)	5 (90% or more inhibition)	5 (90% or more inhibition)	5 (90% or more inhibition)	5 (90% or more inhibition)	5 (90% or more inhibition)	5 (90% or more inhibition)	5 (90% or more inhibition)	4 (70% or more-90% inhibition)
COc1ccc(C(=O)NS(=O)(=O)c2ccccc2S(C)(=O)=O)nc1Br [Compound I-819, 6-Bromo-5-methoxy-N-[[2-(methylsulfonyl)-phenyl]sulfonyl]-2-pyridinecarboxamide]	5 (90% or more inhibition)	5 (90% or more inhibition)	5 (90% or more inhibition)	4 (70% or more-90% inhibition)	4 (70% or more-90% inhibition)	5 (90% or more inhibition)	5 (90% or more inhibition)	5 (90% or more inhibition)	5 (90% or more inhibition)	5 (90% or more inhibition)	3 (50% or more-70% inhibition)
COc1ccc(C(=O)NS(=O)(=O)c2ccccc2S(=O)(=O)N(C)OC)nc1Br [Compound I-830, 6-Bromo-5-methoxy-N-[[2-(N-methyl-N-methoxyaminosulfonyl]phenyl]sulfonyl]-2-pyridinecarboxamide]	5 (90% or more inhibition)	5 (90% or more inhibition)	5 (90% or more inhibition)	5 (90% or more inhibition)	5 (90% or more inhibition)	5 (90% or more inhibition)	4 (70% or more-90% inhibition)	5 (90% or more inhibition)	5 (90% or more inhibition)	5 (90% or more inhibition)	5 (90% or more inhibition)
COc1cc(Cl)nc(C(=O)NS(=O)(=O)c2ccccc2S(=O)(=O)N(C)OC)c1 [Compound I-838, 6-Chloro-4-methoxy-N-[[2-(N-methyl-N-methoxyamino)sulfonyl]phenylsulfonyl]-2-pyridinecarboxamide]	5 (90% or more inhibition)	4 (70% or more-90% inhibition)	5 (90% or more inhibition)	5 (90% or more inhibition)	5 (90% or more inhibition)	5 (90% or more inhibition)	5 (90% or more inhibition)	5 (90% or more inhibition)	5 (90% or more inhibition)	4 (70% or more-90% inhibition)	4 (70% or more-90% inhibition)
